According to patent USRE46856E1, “Substituted 2,3-dihydroimidazo[1,2-c]quinazoline derivatives useful for treating hyper-proliferative disorders and diseases associated with angiogenesis” (Bayer Intellectual Property GmbH, priority 2006, dated 2018):
Counter-ions that a name gives are not always drawn.

How the values were obtained:
PI3Kβ = biological target: T1, PI3Kβ (Homo sapiens, UniProt P42338); assay: Isozyme selectivity test: kinase assay of PI3Kβ (p110β assay); assay type: biochemical; conditions: recombinant truncated p110β, 7.5 ng protein/well
T1 construct: His6 (N); made in house; host or cells: S. frugiperda 9 (Sf9) insect cells
T1 sequence (P42338 109-1070): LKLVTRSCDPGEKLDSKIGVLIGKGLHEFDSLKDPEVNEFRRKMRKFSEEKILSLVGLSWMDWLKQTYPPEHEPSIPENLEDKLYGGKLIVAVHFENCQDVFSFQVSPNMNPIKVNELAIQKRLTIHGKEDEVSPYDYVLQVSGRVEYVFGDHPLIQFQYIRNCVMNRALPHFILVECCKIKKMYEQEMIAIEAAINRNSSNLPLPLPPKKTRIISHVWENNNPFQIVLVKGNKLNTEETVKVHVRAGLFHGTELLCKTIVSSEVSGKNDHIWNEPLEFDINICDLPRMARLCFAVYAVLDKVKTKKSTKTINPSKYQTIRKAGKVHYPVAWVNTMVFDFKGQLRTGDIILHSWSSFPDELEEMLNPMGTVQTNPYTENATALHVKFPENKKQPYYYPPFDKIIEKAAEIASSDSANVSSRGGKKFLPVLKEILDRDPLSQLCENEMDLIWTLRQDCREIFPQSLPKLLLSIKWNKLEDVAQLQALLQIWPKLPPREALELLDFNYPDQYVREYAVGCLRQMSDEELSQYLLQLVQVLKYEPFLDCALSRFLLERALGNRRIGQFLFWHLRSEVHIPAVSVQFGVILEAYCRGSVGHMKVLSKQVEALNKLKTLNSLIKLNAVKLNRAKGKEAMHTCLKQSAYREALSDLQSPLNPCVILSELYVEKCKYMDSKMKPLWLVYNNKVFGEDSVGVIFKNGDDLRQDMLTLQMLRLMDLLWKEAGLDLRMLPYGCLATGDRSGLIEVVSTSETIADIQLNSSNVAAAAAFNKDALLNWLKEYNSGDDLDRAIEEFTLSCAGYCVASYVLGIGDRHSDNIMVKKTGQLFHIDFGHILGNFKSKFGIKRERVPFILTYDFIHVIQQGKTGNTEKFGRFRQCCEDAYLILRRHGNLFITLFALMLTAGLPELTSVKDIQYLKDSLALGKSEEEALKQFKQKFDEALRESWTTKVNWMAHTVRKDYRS
Description: [Isozyme Selectivity Test in PI3K]
Determination of IC50 Values of Compounds in Kinase Assays of PI3Kβ and PI3Kγ

PI3Kα = biological target: T2, PI3Kα (Homo sapiens, UniProt P42336); assay: Solid-phase lipid kinase assay of PI3Kα (p110α assay); assay type: biochemical; conditions: recombinant truncated human p110α, 10 μM ATP
T2 construct: His6 (N); made in house; host or cells: S. frugiperda 9 (Sf9) insect cells
T2 sequence (P42336 109-1068): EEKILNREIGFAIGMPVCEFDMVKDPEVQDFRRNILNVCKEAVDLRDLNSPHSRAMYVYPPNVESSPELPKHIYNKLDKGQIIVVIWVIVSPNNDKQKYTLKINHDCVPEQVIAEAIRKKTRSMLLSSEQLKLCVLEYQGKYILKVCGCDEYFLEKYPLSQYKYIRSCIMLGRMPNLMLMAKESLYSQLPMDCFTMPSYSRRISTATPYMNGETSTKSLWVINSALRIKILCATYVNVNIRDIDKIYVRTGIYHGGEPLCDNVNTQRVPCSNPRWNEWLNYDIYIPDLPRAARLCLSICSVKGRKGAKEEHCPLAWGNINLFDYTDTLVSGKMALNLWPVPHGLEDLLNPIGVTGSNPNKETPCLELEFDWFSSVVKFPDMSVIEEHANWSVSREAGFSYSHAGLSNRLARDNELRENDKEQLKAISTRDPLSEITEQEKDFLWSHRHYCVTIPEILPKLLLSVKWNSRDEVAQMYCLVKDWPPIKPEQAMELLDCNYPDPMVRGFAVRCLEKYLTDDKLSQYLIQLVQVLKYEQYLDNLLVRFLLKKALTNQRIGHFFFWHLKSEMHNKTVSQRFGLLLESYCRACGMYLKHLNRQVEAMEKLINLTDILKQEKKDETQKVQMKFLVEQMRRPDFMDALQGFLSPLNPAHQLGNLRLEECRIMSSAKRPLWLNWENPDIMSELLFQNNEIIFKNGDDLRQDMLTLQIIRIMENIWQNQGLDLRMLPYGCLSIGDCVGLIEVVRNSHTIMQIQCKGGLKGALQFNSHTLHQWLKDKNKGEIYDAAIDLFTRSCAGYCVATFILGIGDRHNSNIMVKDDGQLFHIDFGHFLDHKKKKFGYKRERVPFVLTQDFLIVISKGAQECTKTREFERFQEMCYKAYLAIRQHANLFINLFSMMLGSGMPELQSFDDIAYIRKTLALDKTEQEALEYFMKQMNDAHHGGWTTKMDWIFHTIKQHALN
Description: [Determination of IC50 Values of Compounds in Kinase Assay of PI3Kα]
LABORATORIES (Toronto, Canada). […] [γ^33P]ATP and unlabeled ATP were purchased from […] […] BIOTECH (Buckinghamshire, UK) and ROCHE DIAGNOSTICS (Mannheim, Germany), respectively. Scintillation cocktails and MicroScint PS™ were purchased from PACKARD (Meriden, Conn.). Maxisorp™ plates were purchased from NALGE NUNC INTERNATIONAL K.K. (Tokyo, Japan). All other chemicals not further specified were from WAKO PURE CHEMICALS (Osaka, Japan).
The plates were subsequently air-dried by incubation for at least 2 hours in a fume hood. The reaction was set up by mixing 25 μL/well of assay buffer 2×(100 mM MOPSO/NaOH, 0.2 M NaCl, pH 7.0, 8 mM MgCl2, 2 mg/mL BSA (fatty acid-free)), and 7.5 ng/well PI3Kα in the lipid pre-coated plate. 100× test compounds were added in 2% DMSO. The reaction was started by adding 20 μL/well of ATP mix (final 10 μM ATP; 0.05 μCi/well [γ^33P]ATP). After incubation at RT for 2 hours, the reaction was terminated by adding 50 μl/well stop solution (50 mM EDTA, pH 8.0). The plate was then washed twice with Tris-buffered saline (TBS, pH 7.4). MicroScint PS™ (PACKARD) scintillation mix was added at 100 μL/well, and radioactivity was counted using a TopCount™ (PACKARD) scintillation counter.
The inhibition percent at each concentration of compound was calculated, and IC50 values were determined from the inhibition of curve.

[1] = test system: IGF-1 induced AKT phosphorylation in A549 cells; assay: IGF-1 induced AKT phosphorylation assay (A549 cell assay); assay type: cell-based; conditions: Homo sapiens; A549 cells, 25 ng/ml IGF-1, phospho-AKT(Ser 473); read-out: average IC50 in the A549 cell assay
How it was run: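 A549 cells stimulated with 25 ng/ml IGF-1 for 10 min at 37 °C, then fixed in formaldehyde/methanol. Phospho-AKT detected by cell ELISA (primary anti-phospho-AKT, HRP secondary, ECL luminescence); IC50 from inhibition curve.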

COc1c(OCCCN2CCOCC2)ccc2c1N=C(NC(=O)c1ccc(N3CCNCC3)nc1)N1CCN=C21 [Example 50, N-[7-methoxy-8-(3-morpholin-4-ylpropoxy)-2,3-dihydroimidazo[1,2-c]quinazolin-5-yl]-6-piperazin-1-ylnicotinamide hydrochloride] was tested, and the IC50 (PI3Kβ) was 10 to 100 nM, the IC50 (PI3Kα) was 10 to 100 nM and the IC50 [1] was > 1000 nM.
In the case of COc1c(OCCCN2CCOCC2)ccc2c1N=C(NC(=O)c1ccc(-n3cccc3)nc1)N1CCN=C21 [Example 56, N-[7-methoxy-8-(3-morpholin-4-ylpropoxy)-2,3-dihydroimidazo[1,2-c]quinazolin-5-yl]-6-(1H-pyrrol-1-yl)nicotinamide], the IC50 (PI3Kβ) is reported as 10 to 100 nM, the IC50 (PI3Kα) is reported as 10 to 100 nM and the IC50 [1] is reported as > 1000 nM.
COc1c(OCCCN2CCOCC2)ccc2c1N=C(NC(=O)c1ccc(C(F)(F)F)nc1)N1CCN=C21 [Example 62, N-[7-methoxy-8-(3-morpholin-4-ylpropoxy)-2,3-dihydroimidazo[1,2-c]quinazolin-5-yl]-6-(trifluoromethyl)nicotinamide] was tested, and the IC50 (PI3Kβ) was 10 to 100 nM, the IC50 (PI3Kα) was 10 to 100 nM and the IC50 [1] was 100 to 1000 nM.
In the case of COc1c(OCCCN(C)C)ccc2c1N=C(NC(=O)c1ccc[n+]([O-])c1)N1CCN=C21 [Example 12, N-{8-[3-(dimethylamino)propoxy]-7-methoxy-2,3-dihydroimidazo[1,2-c]quinazolin-5-yl}nicotinamide 1-oxide], the IC50 (PI3Kβ) is reported as > 100 nM, the IC50 (PI3Kα) is reported as > 100 nM and the IC50 [1] is reported as > 1000 nM.
COc1c(OCCC2CN(CC3CCC3)CCO2)ccc2c1N=C(NC(=O)c1cccnc1)N1CCN=C21 (stereo not drawn) [Example 19, N-(8-{2-[4-(cyclobutylmethyl)morpholin-2-yl]ethoxy}-7-methoxy-2,3-dihydroimidazo[1,2-c]quinazolin-5-yl)nicotinamide] was tested, and the IC50 (PI3Kβ) was < 10 nM, the IC50 (PI3Kα) was < 10 nM and the IC50 [1] was < 100 nM.
In the case of COc1c(OCCCN2CCOCC2)ccc2c1N=C(NC(=O)c1cccs1)N1CCN=C21 [Example 93, N-[7-methoxy-8-(3-morpholin-4-ylpropoxy)-2,3-dihydroimidazo[1,2-c]quinazolin-5-yl]thiophene-2-carboxamide], the IC50 (PI3Kβ) is reported as 10 to 100 nM, the IC50 (PI3Kα) is reported as 10 to 100 nM and the IC50 [1] is reported as 100 to 1000 nM.
With COc1c(OCCCN2C[C@@H](C)O[C@@H](C)C2)ccc2c1N=C(NC(=O)c1ccc(NC(C)=O)nc1)N1CCN=C21 [Example 29, rel-6-acetamido-N-(8-{3-[(2R,6S)-2,6-dimethylmorpholin-4-yl]propoxy}-7-methoxy-2,3-dihydroimidazo[1,2-c]quinazolin-5-yl)nicotinamide] the IC50 (PI3Kβ) was < 10 nM, the IC50 (PI3Kα) was < 10 nM and the IC50 [1] was < 100 nM.
With COc1c(OCCCN2CCOCC2)ccc2c1N=C(NC(=O)c1cnc(NCCCN3CCOCC3)nc1)N1CCN=C21 [Example 43, N-[7-methoxy-8-(3-morpholin-4-ylpropoxy)-2,3-dihydroimidazo[1,2-c]quinazolin-5-yl]-2-[(3-morpholin-4-ylpropyl)amino]pyrimidine-5-carboxamide] the IC50 (PI3Kβ) was 10 to 100 nM, the IC50 (PI3Kα) was 10 to 100 nM and the IC50 [1] was > 1000 nM.
In the case of CCN1CCOC(COc2ccc3c(c2OC)N=C(NC(=O)c2cccnc2)N2CCN=C32)C1 (stereo not drawn) [Example 21, N-{8-[(4-ethylmorpholin-2-yl)methoxy]-7-methoxy-2,3-dihydroimidazo[1,2-c]quinazolin-5-yl}nicotinamide], the IC50 (PI3Kβ) is reported as 10 to 100 nM, the IC50 (PI3Kα) is reported as 10 to 100 nM and the IC50 [1] is reported as < 100 nM.
In the case of COc1c(OCCCN2CCOCC2)ccc2c1N=C(NC(=O)c1ccc(NC(=O)C(C)(C)C)nc1)N1CCN=C21 [Example 59, 6-[(2,2-dimethylpropanoyl)amino]-N-[7-methoxy-8-(3-morpholin-4-ylpropoxy)-2,3-dihydroimidazo[1,2-c]quinazolin-5-yl]nicotinamide], the IC50 (PI3Kβ) is reported as > 100 nM, the IC50 (PI3Kα) is reported as > 100 nM and the IC50 [1] is reported as > 1000 nM.
With COc1c(OCCCN2CCOCC2)ccc2c1N=C(NC(=O)c1csc(C)n1)N1CCN=C21 [Example 98, N-[7-methoxy-8-(3-morpholin-4-ylpropoxy)-2,3-dihydroimidazo[1,2-c]quinazolin-5-yl]-2-methyl-1,3-thiazole-4-carboxamide] the IC50 (PI3Kβ) was 10 to 100 nM, the IC50 (PI3Kα) was 10 to 100 nM and the IC50 [1] was > 1000 nM.
